According to ChEMBL document CHEMBL4699475, “Campafungins: Inhibitors of Candida albicans and Cryptococcus neoformans Hyphal Growth” (2020):
Activity calls are given as the source filed them. The calls are words filed in the database; no cut-off is given here.

Key:
Staphylococcus aureus = test: Antimicrobial activity against Staphylococcus aureus ATCC 43300 assessed as reduction in microbial growth after 24 hrs by resazurin staining based liquid serial dilution assay; type: functional
Nakaseomyces glabratus = test: Antimicrobial activity against Candida glabrata ATCC 2001 assessed as reduction in microbial growth after 48 hrs by resazurin staining based liquid serial dilution assay; type: functional
Candida tropicalis = test: Antimicrobial activity against Candida tropicalis ATCC 750 assessed as reduction in microbial growth after 48 hrs by resazurin staining based liquid serial dilution assay; type: functional
Cryptococcus neoformans [1] = test: Antimicrobial activity against Cryptococcus neoformans H99 assessed as reduction in microbial growth after 72 hrs by resazurin staining based liquid serial dilution assay; type: functional
Candida albicans [2] = test: Antimicrobial activity against Candida albicans ATCC 10231 assessed as reduction in microbial growth after 48 hrs by resazurin staining based liquid serial dilution assay; type: functional
Aspergillus fumigatus [3] = test: Antimicrobial activity against Aspergillus fumigatus FSGC A1240 assessed as reduction in microbial growth after 48 hrs by resazurin staining based liquid serial dilution assay; type: functional
Cryptococcus neoformans [4] = test: Antimicrobial activity against Cryptococcus neoformans H99 harboring cac1 deletion mutant assessed as reduction in microbial growth after 72 hrs by resazurin staining based liquid serial dilution assay; type: functional, organism-based
Cryptococcus neoformans [5] = test: Effect on cAMP signaling mediated virulence associated encapsulation phenotype in Cryptococcus neoformans H99 incubated for 72 hrs by India Ink staining based analysis; type: functional
Cryptococcus neoformans [6] = test: Antimicrobial activity against Cryptococcus neoformans H99 harboring pkr1 deletion mutant assessed as reduction in microbial growth after 72 hrs by resazurin staining based liquid serial dilution assay; type: functional, organism-based
[7] = system: Schizosaccharomyces pombe; test: Antimicrobial activity against Schizosaccharomyces pombe strain SAK1 assessed as reduction in microbial growth by resazurin staining based CLSI method; type: functional
Cryptococcus neoformans [8] = test: Antimicrobial activity against Cryptococcus neoformans H99 harboring pde1 deletion mutant assessed as reduction in microbial growth after 72 hrs by resazurin staining based liquid serial dilution assay; type: functional, organism-based
Cryptococcus neoformans [9] = test: Antimicrobial activity against Cryptococcus neoformans H99 harboring gpa1 deletion mutant assessed as reduction in microbial growth after 72 hrs by resazurin staining based liquid serial dilution assay; type: functional, organism-based
Aspergillus fumigatus [10] = test: Inhibition of hyphal extension in Aspergillus fumigatus AF293 at 10 ug/ml measured after 48 hrs by microscopic analysis; type: functional, organism-based; conditions: dose 10.0 µg/ml
Cryptococcus neoformans [11] = test: Effect on cAMP signaling mediated virulence associated melanin production phenotype in Cryptococcus neoformans H99 incubated for 72 hrs in presence of L-DOPA; type: functional
Candida albicans [12] = test: Inhibition of hyphal extension in Candida albicans SC3514 at 10 ug/ml measured at >48 hrs by microscopic analysis; type: functional, organism-based; conditions: dose 10.0 µg/ml, time hrs >48
[13] = system: Schizosaccharomyces pombe; test: Antimicrobial activity against Schizosaccharomyces pombe strain SAK1 harboring MJ-1682 efflux mutant assessed as reduction in microbial growth by resazurin staining based CLSI method; type: functional
Candida albicans [14] = test: Inhibition of hyphal extension in Candida albicans SC3514 at 10 ug/ml measured after 24 to 48 hrs by microscopic analysis; type: functional, organism-based; conditions: dose 10.0 µg/ml, time 24-48 hrs
Aspergillus fumigatus [15] = test: Antimicrobial activity against Aspergillus fumigatus AF293 assessed as reduction in microbial growth after 48 hrs by resazurin staining based liquid serial dilution assay; type: functional
Cryptococcus neoformans [16] = test: Antimicrobial activity against Cryptococcus neoformans H99 harboring pka1 deletion mutant assessed as reduction in microbial growth after 72 hrs by resazurin staining based liquid serial dilution assay; type: functional, organism-based

Compound | MIC (Staphylococcus aureus) | MIC (Nakaseomyces glabratus) | MIC (Candida tropicalis) | MIC (Cryptococcus neoformans [1]) | MIC (Candida albicans [2]) | MIC (Aspergillus fumigatus [3]) | Activity (Cryptococcus neoformans [4]) | Activity (Cryptococcus neoformans [5]) | Activity (Cryptococcus neoformans [6]) | MIC [7] | Activity (Cryptococcus neoformans [8]) | Activity (Cryptococcus neoformans [9]) | inhibition (Aspergillus fumigatus [10]) | Activity (Cryptococcus neoformans [11]) | inhibition (Candida albicans [12]) | MIC [13] | inhibition (Candida albicans [14]) | MIC (Aspergillus fumigatus [15]) | Activity (Cryptococcus neoformans [16])
C/C=C(\C)[C@@]1(O)[C@@H](/C=C/C=C/C=C/C=C/C(=O)O)[C@@H]2CC=C(C)C[C@H]2[C@@H]2O[C@@H]21 | 32 µg/mL | > 128 µg/mL | 64 µg/mL | 4 µg/mL | 128 µg/mL | 64 µg/mL | – | – | – | – | – | – | – | – | – | – | – | – | –
C/C=C(\C)[C@]1(O)C=C[C@@H]2CC(C)=CC[C@H]2[C@]1(O)/C=C/C=C/C=C\C=C\C(=O)O | 32 µg/mL | > 128 µg/mL | 64 µg/mL | 4 µg/mL | 128 µg/mL | 64 µg/mL | – | – | – | – | – | – | – | – | – | – | – | – | –
C\C=C(/C=C/C=C/C=C/C=C/C(=O)O)[C@]1(O)[C@H]2CC=C(C)C[C@@H]2C=C[C@@]1(C)O | 64 µg/mL | > 128 µg/mL | 64 µg/mL | 8 µg/mL | 128 µg/mL | 64 µg/mL | Active | inactive | Active | 10 µg/mL | Active | Active | Active | inactive | inactive | 2 µg/mL | Active | 38 µg/mL | Active
C/C=C(\C)[C@]1(O)C=C[C@@H]2CC(C)=CC[C@H]2[C@]1(O)/C=C/C=C/C=C\C=C\C=C\C(=O)O | 32 µg/mL | > 128 µg/mL | 64 µg/mL | 8 µg/mL | > 128 µg/mL | 64 µg/mL | – | – | – | – | – | – | – | – | – | – | – | – | –
C[C@@H]1[C@H](O)[C@@H](C)/C=C/C=C/C=C/C=C/C=C/C=C/C=C/[C@H](O[C@@H]2O[C@H](C)[C@@H](O)[C@H](N)[C@@H]2O)C[C@@H]2O[C@](O)(C[C@@H](O)C[C@@H](O)[C@H](O)CC[C@@H](O)C[C@@H](O)CC(=O)O[C@H]1C)C[C@H](O)[C@H]2C(=O)O [AMPHOTERICIN B] | – | 0.18 µg/mL | 0.36 µg/mL | 0.36 µg/mL | 0.36 µg/mL | 0.74 µg/mL | – | – | – | – | – | – | – | – | – | – | – | – | –
